# Reference: ChEMBL document CHEMBL1143489, “Design, synthesis, and enzymatic property of a sulfur-substituted analogue of trigalacturonic acid” (Bioorg Med Chem Lett, 2005)
# Biological target: T1, Endopolygalactyuronase (Chondrostereum purpureum, UniProt P79074)
# T1 sequence (P79074 whole entry): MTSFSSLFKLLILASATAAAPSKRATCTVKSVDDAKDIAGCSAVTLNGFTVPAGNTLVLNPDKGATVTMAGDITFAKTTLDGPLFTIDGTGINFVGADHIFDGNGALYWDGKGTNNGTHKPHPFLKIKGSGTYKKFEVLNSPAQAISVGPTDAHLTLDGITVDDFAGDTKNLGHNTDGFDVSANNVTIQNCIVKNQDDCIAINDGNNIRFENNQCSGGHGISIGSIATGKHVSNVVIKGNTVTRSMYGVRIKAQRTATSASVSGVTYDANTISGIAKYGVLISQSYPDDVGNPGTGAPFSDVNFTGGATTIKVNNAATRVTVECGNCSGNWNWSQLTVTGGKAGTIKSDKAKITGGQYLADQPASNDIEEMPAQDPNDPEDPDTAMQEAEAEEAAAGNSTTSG
# Experiment: Dissociation constant against endo-polygalacturonase 1
compound,measurement,value
CO[C@H]1O[C@@H](C(=O)O)[C@H](S[C@H]2O[C@@H](C(=O)O)[C@H](O[C@H]3O[C@@H](C(=O)O)[C@H](O)[C@H](O)[C@@H]3O)[C@H](O)[C@@H]2O)[C@H](O)[C@@H]1O,Kd,200 nM
